Read-outs that look alike come from different tables or passages of the source.
Tests used:
5-HT3 receptor = target: T1, 5-HT3 receptor (Rattus norvegicus, UniProt P35563); test: 5-HT3 receptor binding experiment (3H-quipazine binding assay, rat cerebral cortical membrane fraction); details: for inhibition at 0.01 µM / inhibition at 0.001 µM: read-out: Binding inhibitory rate
T1 sequence (P35563 24-483): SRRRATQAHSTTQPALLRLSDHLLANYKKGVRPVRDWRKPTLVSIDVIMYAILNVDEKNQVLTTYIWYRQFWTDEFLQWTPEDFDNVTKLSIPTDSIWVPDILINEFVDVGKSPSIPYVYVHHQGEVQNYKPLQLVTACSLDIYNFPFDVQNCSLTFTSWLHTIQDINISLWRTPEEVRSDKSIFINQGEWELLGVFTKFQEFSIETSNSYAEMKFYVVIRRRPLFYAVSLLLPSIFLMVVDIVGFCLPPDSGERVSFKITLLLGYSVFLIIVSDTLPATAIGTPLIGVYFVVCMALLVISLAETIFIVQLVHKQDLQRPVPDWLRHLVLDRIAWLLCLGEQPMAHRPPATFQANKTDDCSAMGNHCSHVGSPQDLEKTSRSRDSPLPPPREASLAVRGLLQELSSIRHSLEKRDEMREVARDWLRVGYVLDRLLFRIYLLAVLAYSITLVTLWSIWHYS

female beagles = test: Antiemetic effects against cisplatin-induced vomiting; type: in vivo, female beagles (dog); details: for Number of vomits / Latency of the first vomit: test compound 0.1 mg/kg i.v. 75 minutes after cisplatin 3 mg/kg i.v.; for Number of vomits: 4 hours observation; for Vomiting after cisplatin (result in words): two beagles, test compound 0.1 mg/kg i.v., cisplatin 3 mg/kg i.v.
Text: Using four 9-13 month-old female beagles having a body weight of 7.5-9.6 Kg (furnished by Toyo Research Animal Inc.), the antiemetic effects of certain compounds of the present invention were investigated.
As test compounds, the compounds obtained in Examples 8 and 9, respectively, were individually weighed and dissolved in 0.01N hydrochloric acid. The resultant solutions were neutralized to about pH 7 with 0.01N NaOH to provide aqueous solutions for administration. Cisplatin ("Briplatin Injection", product of Bristol-Myers Co.) was used as an emetic.
To see the emetic effects of cisplatin to each animal, vomiting after the administration of cisplatin was first observed (control group). Next, seven weeks later, each group consisting of two beagles was intravenously administered with 0.1 mg/kg (0.2 ml/kg) of the compound of Example 8 or 9 upon an elapsed time of 75 minutes after the administration of cisplatin, and the group administered with the compound of Example 8 and the group administered with the compound of Example 9 were both observed for vomit. Cisplatin was intravenously administered at the dosage of 3 mg/kg (in the volume of 6 ml/kg) and the administration rate of 10 ml/min.
The laboratory animals were fasted for about 24 hours prior to administration of cisplatin and, one hour after the administration of cisplatin, were fed. Vomit was determined depending on whether vomitus was discharged out of the mouth. With respect to the number of vomits and their latency, observation was continued for 4 hours after the administration of cisplatin.
Based on the observation, the latency of the first vomit of and the number of vomits of each laboratory animal after the administration of cisplatin are shown in Table 3-A and Table 3-B.

| Structure (SMILES) | IC50 (5-HT3 receptor) [µM] | other results |
| --- | --- | --- |
| O=C(O)c1cnn2ccccc12 [Control* 1, Pyrazolo[1,5a]pyridine3-carboxylic acid, reference compound] | > 10 | – |
| Cc1nn2ccccc2c1C(=O)O [Control* 2, 2Methylpyrazolo[1,5a]pyridine3-carboxylic acid, reference compound] | > 10 | – |
| Cc1cccn2ncc(C(=O)O)c12 [Control* 3, 4Methylpyrazolo[1,5a]pyridine3-carboxylic acid, reference compound] | > 10 | – |
| Cc1ccn2ncc(C(=O)O)c2c1 [Control* 4, 5Methylpyrazolo[1,5a]pyridine3-carboxylic acid, reference compound] | > 10 | – |
| Cc1ccc2c(C(=O)O)cnn2c1 [Control* 5, 6Methylpyrazolo[1,5a]pyridine3-carboxylic acid, reference compound] | > 10 | – |
| Cc1cccc2c(C(=O)O)cnn12 [Control* 6, 7Methylpyrazolo[1,5a]pyridine3-carboxylic acid, reference compound] | > 10 | – |
| Cc1nn2c(C)cccc2c1C(=O)O [Control* 7, 2,7Dimethylpyrazolo[1,5a]pyridine3-carboxylic acid, reference compound] | > 10 | – |
| O=C(NC1CN2CCC1CC2)c1cnn2ccccc12 (stereo not drawn) [Example 1, N-(1-azabicyclo[2.2.2]oct-3-yl)-3-pyrazolo[1,5-a]pyridinecarboxamide] | 0.0411 | inhibition at 0.01 µM (5-HT3 receptor): 50% |
| Cc1ccn2ncc(C(=O)NC3CN4CCC3CC4)c2c1 (stereo not drawn) [Example 2, 5-methyl-N-(1-azabicyclo[2.2.2]oct-3-yl)-3-pyrazolo[1,5-a]pyridinecarboxamide] | 0.0432 | inhibition at 0.01 µM (5-HT3 receptor): 31% |
| Cc1cccc2c(C(=O)NC3CN4CCC3CC4)cnn12 (stereo not drawn) [Example 4, 7-methyl-N-(1-azabicyclo[2.2.2]oct-3-yl)-3-pyrazolo[1,5-a]pyridinecarboxamide] | 0.0072 | inhibition at 0.01 µM (5-HT3 receptor): 82% |
| Cc1nn2ccccc2c1C(=O)NC1CN2CCC1CC2 (stereo not drawn) [Example 5, 2-methyl-N-(1-azabicyclo[2.2.2]oct-3-yl)-3-pyrazolo[1,5-a]pyridinecarboxamide] | 0.0189 | inhibition at 0.01 µM (5-HT3 receptor): 50% |
| CN1[C@@H]2CC[C@H]1C[C@@H](OC(=O)c1cnn3ccccc13)C2 [Example 6, endo-8-methyl-8-azabicyclo[3.2.1]-oct-3-yl pyrazolo[1,5-a]pyridine-3-carboxylate] | 0.0165 | inhibition at 0.001 µM (5-HT3 receptor): 9%; inhibition at 0.01 µM (5-HT3 receptor): 37% |
| Cc1cccc2c(C(=O)O[C@H]3C[C@H]4CC[C@@H](C3)N4C)cnn12 [Example 7, endo-8-methyl-8-azabicyclo[3.2.1]-oct-3-yl 7-methylpyrazolo[1,5-a]pyridine-3-carboxylate] | 0.001 | inhibition at 0.001 µM (5-HT3 receptor): 43%; inhibition at 0.01 µM (5-HT3 receptor): 77% |
| Cc1cccc2c(C(=O)N[C@H]3C[C@H]4CC[C@@H](C3)N4C)cnn12 [Example 8, endo-8-methyl-8-azabicyclo[3.2.1]-oct-3-yl 7-methyl-pyrazolo[1,5-a]pyridine-3-carboxamide] | 0.0191 | Number of vomits (female beagles; Dog No. 1): 0 times; Number of vomits (female beagles; Dog No. 2): 0 times; Vomiting after cisplatin (result in words) (female beagles): No vomit |
| Cc1cccc2c(C(=O)N[C@H]3C[C@H]4CCC[C@@H](C3)N4C)cnn12 [Example 9, endo-9-methyl-9-azabicyclo[3.3.1]-non-3-yl 7-methyl-pyrazolo[1,5-a]pyridine-3-carboxamide] | – | Latency of the first vomit (female beagles; Dog No. 3): 132 min; Number of vomits (female beagles; Dog No. 3): 12 times; Latency of the first vomit (female beagles; Dog No. 4): 173 min; Vomiting after cisplatin (result in words) (female beagles): number of vomits therefore decreased in one case; IC50 (5-HT3 receptor; read-out: IC50 value): 0.0537 µM |
| Cc1cccc2c(C(=O)N[C@@H]3CN4CCC3CC4)cnn12 [Example 10, (S)-(-)-N-(1-azabicyclo[2.2.2]oct-3-yl)-7-methylpyrazolo[1,5-a]pyridine-3-carboxamide] | 0.00028 | – |
| Cc1cccc2c(C(=O)N[C@H]3CN4CCC3CC4)cnn12 [Example 11, (R)-(+)-N-(1-azabicyclo[2.2.2]oct-3-yl)-7-methylpyrazolo[1,5-a]pyridine-3-carboxamide] | 0.0449 | – |
| Cc1nn2ccccc2c1C(=O)O[C@H]1C[C@H]2CC[C@@H](C1)N2C [Example 15, endo-8-methyl-8-azabicyclo[3.2.1]-oct-3-yl 2-methyl-pyrazolo[1,5-a]pyridine-3-carboxylate] | 0.0027 | – |
| Cc1cccn2ncc(C(=O)O[C@H]3C[C@H]4CC[C@@H](C3)N4C)c12 [Example 16, endo-8-methyl-8-azabicyclo[3.2.1]-oct-3-yl 4-methyl-pyrazolo[1,5-a]pyridine-3-carboxylate] | 0.0035 | – |
| Cc1ccn2ncc(C(=O)O[C@H]3C[C@H]4CC[C@@H](C3)N4C)c2c1 [Example 17, endo-8-methyl-8-azabicyclo[3.2.1]-oct-3-yl 5-methylpyrazolo[1,5-a]pyridine-3-carboxylate] | 0.0258 | – |
| Cc1nn2c(C)cccc2c1C(=O)NC1CN2CCC1CC2 (stereo not drawn) [Example 19] | 0.0052 | – |
